Holding throughout (assay): relative viability (nuclei count vs DMSO), 5 days (fraction); higher = more cells survive
Compound in the test “Selumetinib + Lapatinib”: Cn1cnc2c(F)c(Nc3ccc(Br)cc3Cl)c(C(=O)NOCCO)cc21 [Selumetinib] + CS(=O)(=O)CCNCc1ccc(-c2ccc3ncnc(Nc4ccc(OCc5cccc(F)c5)c(Cl)c4)c3c2)o1 [Lapatinib] (partner 2 µM)
Summed up: (§1)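 One day after seeding in 1536-well plates, lung cancer cell lines were dosed by pin tool. Dosing was either single-drug or a fixed anchor-drug dose plus five library-drug doses (not always all listed) in √10 steps. After 5 days, nuclei were stained in one fix-and-stain step and counted on 4× images, and relative viability is the nuclei count of treated wells over that of vehicle wells, given as the median of duplicate plates.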

Compound in the test “Venetoclax + Alpelisib”: CC1(C)CCC(CN2CCN(c3ccc(C(=O)NS(=O)(=O)c4ccc(NCC5CCOCC5)c([N+](=O)[O-])c4)c(Oc4cnc5[nH]ccc5c4)c3)CC2)=C(c2ccc(Cl)cc2)C1 [Venetoclax] + Cc1nc(NC(=O)N2CCC[C@H]2C(N)=O)sc1-c1ccnc(C(C)(C)C(F)(F)F)c1 [Alpelisib] (partner 2 µM)
Summed up: as §1

Compound in the test “Venetoclax + Decitabine”: CC1(C)CCC(CN2CCN(c3ccc(C(=O)NS(=O)(=O)c4ccc(NCC5CCOCC5)c([N+](=O)[O-])c4)c(Oc4cnc5[nH]ccc5c4)c3)CC2)=C(c2ccc(Cl)cc2)C1 [Venetoclax] + Nc1ncn([C@H]2C[C@H](O)[C@@H](CO)O2)c(=O)n1 [Decitabine] (partner 2 µM)
Summed up: as §1

Compound in the test “Venetoclax + Vorinostat”: CC1(C)CCC(CN2CCN(c3ccc(C(=O)NS(=O)(=O)c4ccc(NCC5CCOCC5)c([N+](=O)[O-])c4)c(Oc4cnc5[nH]ccc5c4)c3)CC2)=C(c2ccc(Cl)cc2)C1 [Venetoclax] + O=C(CCCCCCC(=O)Nc1ccccc1)NO [Vorinostat] (partner 1 µM)
Summed up: as §1

On to UMC-11, for which the relative viability in the test with Selumetinib + Lapatinib (first compound 0.02 µM) is 0.954; in the test with Selumetinib + Lapatinib (first compound 0.06325 µM), 0.897; in the test with Selumetinib + Lapatinib (first compound 0.2 µM), 0.972; with Selumetinib + Lapatinib (first compound 0.6325 µM), 1.02; in the test with Venetoclax + Alpelisib (first compound 0.01 µM) it was 0.924; with Venetoclax + Alpelisib (first compound 0.03162 µM) it was 1.05. Further, the relative viability in the test with Venetoclax + Alpelisib (first compound 0.1 µM) worked out at 0.926; with Venetoclax + Alpelisib (first compound 0.3162 µM), 0.923; in the test with Venetoclax + Alpelisib (first compound 1 µM), 0.915; with Venetoclax + Decitabine (first compound 0.01 µM), 0.705; in the test with Venetoclax + Decitabine (first compound 0.03162 µM), 0.595; in the test with Venetoclax + Decitabine (first compound 0.1 µM) it was 0.48. Further, the relative viability with Venetoclax + Decitabine (first compound 0.3162 µM) turned out to be 0.686; with Venetoclax + Decitabine (first compound 1 µM) it was 0.608; with Venetoclax + Vorinostat (first compound 0.01 µM), 0.329; with Venetoclax + Vorinostat (first compound 0.03162 µM), 0.29; with Venetoclax + Vorinostat (first compound 0.1 µM), 0.274; in the test with Venetoclax + Vorinostat (first compound 0.3162 µM), 0.23. Moreover, the relative viability with Venetoclax + Vorinostat (first compound 1 µM) worked out at 0.261.

The record behind these values is the supplement of paper PMC10307832.
